Assay results taken from patent US20150051269A1, “Drug Delivery Conjugate Capable of Controlled Release, and Use Thereof” (POSTECH ACADEMY-INDUSTRY FOUNDATION, priority 2012, published 2015).

What was measured:
[1] = Surface charge in aqueous solution (Zetasizer Nano Z); assay type: physicochemical
Description: (§1) To measure the sizes and surface charges of the drug delivery conjugates prepared by the method of Example 1, the surface charges and sizes of the drug delivery conjugates in an aqueous solution were measured using a surface charge measurement system (Zetasizer Nano Z) and a size measurement system (Zetasizer Nano S).

[2] = Size of drug delivery conjugates in aqueous solution (Zetasizer Nano S); assay type: physicochemical; details: diameter in aqueous solution
Description: as §1

- Zeta potential (mV) [1]: −39.2 ± 1.50 mV
- Size (d, nm) [2]: 806.4 ± 235.9 nm
SMILES: CC(=O)O[C@H]1C(=O)[C@@]2(C)[C@H]([C@H](OC(=O)c3ccccc3)[C@]3(O)C[C@H](OC(=O)[C@H](O)[C@@H](NC(=O)c4ccccc4)c4ccccc4)C(C)=C1C3(C)C)[C@]1(OC(C)=O)CO[C@@H]1C[C@@H]2O [PTX, paclitaxel]
